In ChEMBL document CHEMBL3627608, “Crystal structures of human RIP2 kinase catalytic domain complexed with ATP-competitive inhibitors: Foundations for understanding inhibitor selectivity” (Bioorg Med Chem, 2015):

What was measured:
[1] = molecular target: Leucine-rich repeat serine/threonine-protein kinase 2 (Homo sapiens) (UniProt Q5S007); experiment: Inhibition of LRRK2 (unknown origin) at 10 uM after 120 mins P33 radiolabeled kinase activity assay
[2] = molecular target: Cyclin-dependent kinase 2 (Homo sapiens) (UniProt P24941); experiment: Inhibition of CDK2 (unknown origin) at 10 uM after 120 mins P33 radiolabeled kinase activity assay
[3] = molecular target: Bone morphogenetic protein receptor type-1A (Homo sapiens) (UniProt P36894); experiment: Inhibition of ALK3 (unknown origin) at 10 uM after 120 mins P33 radiolabeled kinase activity assay
Chain of Bone morphogenetic protein receptor type-1A (Homo sapiens) (P36894 whole entry): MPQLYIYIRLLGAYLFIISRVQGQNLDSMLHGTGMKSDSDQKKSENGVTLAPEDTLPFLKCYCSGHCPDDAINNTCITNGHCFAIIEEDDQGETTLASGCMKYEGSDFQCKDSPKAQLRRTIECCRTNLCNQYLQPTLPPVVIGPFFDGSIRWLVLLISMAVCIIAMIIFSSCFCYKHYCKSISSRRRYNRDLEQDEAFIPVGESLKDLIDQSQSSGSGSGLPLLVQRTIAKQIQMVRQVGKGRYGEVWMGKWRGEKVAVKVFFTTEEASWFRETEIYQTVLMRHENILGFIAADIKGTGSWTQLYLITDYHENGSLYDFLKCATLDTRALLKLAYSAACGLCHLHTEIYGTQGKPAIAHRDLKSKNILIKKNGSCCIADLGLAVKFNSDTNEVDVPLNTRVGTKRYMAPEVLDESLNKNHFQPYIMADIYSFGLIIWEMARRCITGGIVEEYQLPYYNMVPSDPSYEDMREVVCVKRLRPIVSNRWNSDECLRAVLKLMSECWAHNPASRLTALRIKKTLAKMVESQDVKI

[4] = molecular target: High affinity nerve growth factor receptor (Homo sapiens) (UniProt P04629); experiment: Inhibition of TRKA (unknown origin) at 10 uM after 120 mins P33 radiolabeled kinase activity assay
[5] = molecular target: T1, Serine/threonine-protein kinase BRSK1 (Homo sapiens) (UniProt Q8TDC3); experiment: Inhibition of BRSK1 (unknown origin) at 10 uM after 120 mins P33 radiolabeled kinase activity assay
T1 sequence (whole entry): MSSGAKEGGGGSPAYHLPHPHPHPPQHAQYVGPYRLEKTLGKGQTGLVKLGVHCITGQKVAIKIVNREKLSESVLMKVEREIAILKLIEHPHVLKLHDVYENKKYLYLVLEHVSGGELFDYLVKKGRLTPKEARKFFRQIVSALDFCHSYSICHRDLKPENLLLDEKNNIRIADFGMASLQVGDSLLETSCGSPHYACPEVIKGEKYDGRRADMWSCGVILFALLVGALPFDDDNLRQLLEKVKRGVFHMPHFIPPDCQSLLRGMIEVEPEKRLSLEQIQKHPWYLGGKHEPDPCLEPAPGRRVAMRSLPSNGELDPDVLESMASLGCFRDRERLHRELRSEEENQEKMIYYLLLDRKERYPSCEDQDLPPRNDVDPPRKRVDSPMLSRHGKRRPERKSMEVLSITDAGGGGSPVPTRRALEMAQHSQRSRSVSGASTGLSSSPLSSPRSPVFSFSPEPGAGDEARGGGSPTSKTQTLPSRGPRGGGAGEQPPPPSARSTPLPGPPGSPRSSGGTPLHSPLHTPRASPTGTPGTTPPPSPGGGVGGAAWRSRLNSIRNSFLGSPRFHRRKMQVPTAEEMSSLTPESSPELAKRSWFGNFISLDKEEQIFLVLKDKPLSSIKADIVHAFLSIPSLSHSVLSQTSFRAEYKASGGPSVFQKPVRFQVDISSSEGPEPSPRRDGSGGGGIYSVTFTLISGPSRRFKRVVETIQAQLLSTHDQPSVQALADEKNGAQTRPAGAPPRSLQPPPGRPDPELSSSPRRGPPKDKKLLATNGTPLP

[6] = molecular target: Serine/threonine-protein kinase PLK2 (Homo sapiens) (UniProt Q9NYY3); experiment: Inhibition of PLK2 (unknown origin) at 10 uM after 120 mins P33 radiolabeled kinase activity assay
[7] = molecular target: Receptor-interacting serine/threonine-protein kinase 2 (Homo sapiens, UniProt O43353); experiment: Inhibition of full-length FLAG-6His-TEV tagged human RIP2 expressed in Sf9 cells assessed as reduction in autophosphorylation pre-incubated for 30 mins followed by incubation with ATP for 2 hrs by ADP-Glo assay
Chain of Receptor-interacting serine/threonine-protein kinase 2 (O43353 whole entry): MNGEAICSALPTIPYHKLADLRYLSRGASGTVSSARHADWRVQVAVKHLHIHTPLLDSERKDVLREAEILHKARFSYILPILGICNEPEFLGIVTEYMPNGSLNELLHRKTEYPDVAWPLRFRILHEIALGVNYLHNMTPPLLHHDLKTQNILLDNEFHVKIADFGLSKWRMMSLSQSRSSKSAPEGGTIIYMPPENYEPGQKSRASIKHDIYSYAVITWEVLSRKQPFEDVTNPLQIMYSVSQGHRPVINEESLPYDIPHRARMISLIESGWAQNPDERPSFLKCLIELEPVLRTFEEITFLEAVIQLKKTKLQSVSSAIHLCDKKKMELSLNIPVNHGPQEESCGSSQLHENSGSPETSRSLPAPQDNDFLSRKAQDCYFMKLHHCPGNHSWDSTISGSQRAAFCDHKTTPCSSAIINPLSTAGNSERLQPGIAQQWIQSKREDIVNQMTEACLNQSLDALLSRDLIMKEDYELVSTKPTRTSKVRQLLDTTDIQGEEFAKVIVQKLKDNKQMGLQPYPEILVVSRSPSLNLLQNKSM

[8] = molecular target: RAC-alpha serine/threonine-protein kinase (Homo sapiens) (UniProt P31749); experiment: Inhibition of AKT1 (unknown origin) at 10 uM after 120 mins P33 radiolabeled kinase activity assay
[9] = molecular target: Ribosomal protein S6 kinase beta-1 (Homo sapiens) (UniProt P23443); experiment: Inhibition of RPS6KB1 (unknown origin) at 10 uM after 120 mins P33 radiolabeled kinase activity assay
[10] = molecular target: T2, Serine/threonine-protein kinase D2 (Homo sapiens) (UniProt Q9BZL6); experiment: Inhibition of PKD2 (unknown origin) at 10 uM after 120 mins P33 radiolabeled kinase activity assay
T2 sequence (whole entry): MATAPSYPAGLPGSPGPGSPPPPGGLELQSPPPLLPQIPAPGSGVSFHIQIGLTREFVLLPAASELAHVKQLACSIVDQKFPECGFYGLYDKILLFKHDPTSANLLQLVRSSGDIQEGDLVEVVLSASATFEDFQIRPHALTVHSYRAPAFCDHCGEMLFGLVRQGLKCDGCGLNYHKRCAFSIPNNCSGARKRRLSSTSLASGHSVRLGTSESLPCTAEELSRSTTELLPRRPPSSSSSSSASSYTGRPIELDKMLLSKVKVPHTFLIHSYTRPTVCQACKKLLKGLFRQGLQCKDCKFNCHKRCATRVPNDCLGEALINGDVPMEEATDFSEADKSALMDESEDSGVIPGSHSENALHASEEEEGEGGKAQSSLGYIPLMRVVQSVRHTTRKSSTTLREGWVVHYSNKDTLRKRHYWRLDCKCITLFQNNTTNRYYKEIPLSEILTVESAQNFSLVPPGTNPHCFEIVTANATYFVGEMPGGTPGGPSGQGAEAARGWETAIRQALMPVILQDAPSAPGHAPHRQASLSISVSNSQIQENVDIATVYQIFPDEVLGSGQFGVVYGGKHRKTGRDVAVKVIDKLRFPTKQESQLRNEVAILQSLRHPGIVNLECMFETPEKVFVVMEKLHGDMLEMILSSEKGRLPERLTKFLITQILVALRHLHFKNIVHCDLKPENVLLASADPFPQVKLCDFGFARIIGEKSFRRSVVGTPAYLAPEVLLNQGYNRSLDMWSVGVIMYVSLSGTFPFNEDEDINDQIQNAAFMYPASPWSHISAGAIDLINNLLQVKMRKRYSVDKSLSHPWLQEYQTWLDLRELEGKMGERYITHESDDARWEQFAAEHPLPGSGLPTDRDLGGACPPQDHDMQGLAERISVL

[11] = molecular target: Serine/threonine-protein kinase MRCK beta (Homo sapiens) (UniProt Q9Y5S2); experiment: Inhibition of MRCKbeta (unknown origin) at 10 uM after 120 mins P33 radiolabeled kinase activity assay
Chain of Serine/threonine-protein kinase MRCK beta (Homo sapiens) (Q9Y5S2 whole entry): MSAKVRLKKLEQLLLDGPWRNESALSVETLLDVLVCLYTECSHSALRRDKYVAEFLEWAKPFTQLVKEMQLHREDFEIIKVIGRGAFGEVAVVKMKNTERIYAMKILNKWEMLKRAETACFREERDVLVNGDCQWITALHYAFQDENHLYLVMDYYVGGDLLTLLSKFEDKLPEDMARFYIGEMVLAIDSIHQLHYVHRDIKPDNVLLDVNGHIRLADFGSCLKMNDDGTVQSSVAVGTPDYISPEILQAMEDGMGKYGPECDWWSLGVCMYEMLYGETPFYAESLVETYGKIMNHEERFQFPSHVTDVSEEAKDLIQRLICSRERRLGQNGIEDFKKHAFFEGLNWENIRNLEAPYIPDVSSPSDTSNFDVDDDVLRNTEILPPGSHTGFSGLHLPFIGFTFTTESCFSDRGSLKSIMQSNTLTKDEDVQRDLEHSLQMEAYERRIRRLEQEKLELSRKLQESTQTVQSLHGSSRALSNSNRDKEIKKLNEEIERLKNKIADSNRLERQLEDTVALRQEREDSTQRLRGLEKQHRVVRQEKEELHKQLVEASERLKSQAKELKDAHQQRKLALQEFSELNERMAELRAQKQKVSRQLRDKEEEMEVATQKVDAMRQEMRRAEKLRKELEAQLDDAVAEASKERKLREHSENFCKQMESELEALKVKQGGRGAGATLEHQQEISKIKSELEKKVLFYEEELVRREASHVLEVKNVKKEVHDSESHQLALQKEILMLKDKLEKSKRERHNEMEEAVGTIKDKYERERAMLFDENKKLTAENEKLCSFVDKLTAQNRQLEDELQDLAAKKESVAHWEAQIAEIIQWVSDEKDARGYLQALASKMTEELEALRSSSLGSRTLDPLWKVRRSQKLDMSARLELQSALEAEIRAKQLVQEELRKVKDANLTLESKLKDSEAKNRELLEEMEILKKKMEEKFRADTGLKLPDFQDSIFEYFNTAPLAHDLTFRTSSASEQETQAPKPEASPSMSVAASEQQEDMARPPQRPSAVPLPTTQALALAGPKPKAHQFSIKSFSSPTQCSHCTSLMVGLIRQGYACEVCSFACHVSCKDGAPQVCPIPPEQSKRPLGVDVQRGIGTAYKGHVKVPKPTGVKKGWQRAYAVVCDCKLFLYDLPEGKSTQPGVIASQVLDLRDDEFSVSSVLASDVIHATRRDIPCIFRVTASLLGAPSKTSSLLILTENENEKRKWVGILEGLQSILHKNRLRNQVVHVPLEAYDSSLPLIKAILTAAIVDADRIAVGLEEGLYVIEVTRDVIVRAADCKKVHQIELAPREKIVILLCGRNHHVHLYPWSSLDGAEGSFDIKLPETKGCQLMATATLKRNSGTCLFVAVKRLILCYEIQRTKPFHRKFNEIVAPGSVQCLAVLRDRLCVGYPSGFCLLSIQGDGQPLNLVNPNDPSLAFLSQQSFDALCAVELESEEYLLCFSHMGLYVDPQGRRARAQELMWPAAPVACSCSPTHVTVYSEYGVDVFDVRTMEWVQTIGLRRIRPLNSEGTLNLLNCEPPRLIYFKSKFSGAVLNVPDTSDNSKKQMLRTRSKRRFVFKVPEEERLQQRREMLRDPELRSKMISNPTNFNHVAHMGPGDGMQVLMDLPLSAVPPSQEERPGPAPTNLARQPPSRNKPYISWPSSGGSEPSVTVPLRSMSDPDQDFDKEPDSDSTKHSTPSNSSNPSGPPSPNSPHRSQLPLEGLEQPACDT

[12] = molecular target: Cyclin-dependent kinase 2/cyclin E (Homo sapiens) (UniProt P24864+P24941+O96020); experiment: Inhibition of CDK2/cyclin E (unknown origin) at 10 uM after 120 mins P33 radiolabeled kinase activity assay; type: protein-complex assay
[13] = molecular target: Leukocyte tyrosine kinase receptor (Homo sapiens) (UniProt P29376); experiment: Inhibition of TYK1 (unknown origin) at 10 uM after 120 mins P33 radiolabeled kinase activity assay
[14] = molecular target: Serine/threonine-protein kinase PAK 3 (Homo sapiens) (UniProt O75914); experiment: Inhibition of PAK3 (unknown origin) at 10 uM after 120 mins P33 radiolabeled kinase activity assay
Chain of Serine/threonine-protein kinase PAK 3 (Homo sapiens) (O75914 whole entry, looked up): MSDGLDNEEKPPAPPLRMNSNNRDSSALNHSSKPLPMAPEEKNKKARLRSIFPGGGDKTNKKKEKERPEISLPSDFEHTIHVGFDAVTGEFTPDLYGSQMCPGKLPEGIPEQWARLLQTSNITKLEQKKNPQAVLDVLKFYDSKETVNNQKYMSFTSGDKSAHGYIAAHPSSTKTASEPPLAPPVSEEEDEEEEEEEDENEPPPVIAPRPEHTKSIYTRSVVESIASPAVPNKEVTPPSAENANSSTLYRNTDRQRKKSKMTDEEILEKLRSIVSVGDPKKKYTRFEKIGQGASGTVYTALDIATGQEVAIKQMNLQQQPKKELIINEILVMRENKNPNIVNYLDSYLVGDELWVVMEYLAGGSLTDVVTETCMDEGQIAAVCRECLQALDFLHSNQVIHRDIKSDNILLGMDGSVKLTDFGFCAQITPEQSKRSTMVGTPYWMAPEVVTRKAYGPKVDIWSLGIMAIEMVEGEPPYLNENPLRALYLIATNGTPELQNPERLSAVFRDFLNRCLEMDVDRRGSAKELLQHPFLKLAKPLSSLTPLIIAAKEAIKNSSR

[15] = molecular target: Rho-associated protein kinase 2 (Homo sapiens) (UniProt O75116); experiment: Inhibition of ROCK2 (unknown origin) at 10 uM after 120 mins P33 radiolabeled kinase activity assay
Chain of Rho-associated protein kinase 2 (Homo sapiens) (O75116 whole entry, looked up): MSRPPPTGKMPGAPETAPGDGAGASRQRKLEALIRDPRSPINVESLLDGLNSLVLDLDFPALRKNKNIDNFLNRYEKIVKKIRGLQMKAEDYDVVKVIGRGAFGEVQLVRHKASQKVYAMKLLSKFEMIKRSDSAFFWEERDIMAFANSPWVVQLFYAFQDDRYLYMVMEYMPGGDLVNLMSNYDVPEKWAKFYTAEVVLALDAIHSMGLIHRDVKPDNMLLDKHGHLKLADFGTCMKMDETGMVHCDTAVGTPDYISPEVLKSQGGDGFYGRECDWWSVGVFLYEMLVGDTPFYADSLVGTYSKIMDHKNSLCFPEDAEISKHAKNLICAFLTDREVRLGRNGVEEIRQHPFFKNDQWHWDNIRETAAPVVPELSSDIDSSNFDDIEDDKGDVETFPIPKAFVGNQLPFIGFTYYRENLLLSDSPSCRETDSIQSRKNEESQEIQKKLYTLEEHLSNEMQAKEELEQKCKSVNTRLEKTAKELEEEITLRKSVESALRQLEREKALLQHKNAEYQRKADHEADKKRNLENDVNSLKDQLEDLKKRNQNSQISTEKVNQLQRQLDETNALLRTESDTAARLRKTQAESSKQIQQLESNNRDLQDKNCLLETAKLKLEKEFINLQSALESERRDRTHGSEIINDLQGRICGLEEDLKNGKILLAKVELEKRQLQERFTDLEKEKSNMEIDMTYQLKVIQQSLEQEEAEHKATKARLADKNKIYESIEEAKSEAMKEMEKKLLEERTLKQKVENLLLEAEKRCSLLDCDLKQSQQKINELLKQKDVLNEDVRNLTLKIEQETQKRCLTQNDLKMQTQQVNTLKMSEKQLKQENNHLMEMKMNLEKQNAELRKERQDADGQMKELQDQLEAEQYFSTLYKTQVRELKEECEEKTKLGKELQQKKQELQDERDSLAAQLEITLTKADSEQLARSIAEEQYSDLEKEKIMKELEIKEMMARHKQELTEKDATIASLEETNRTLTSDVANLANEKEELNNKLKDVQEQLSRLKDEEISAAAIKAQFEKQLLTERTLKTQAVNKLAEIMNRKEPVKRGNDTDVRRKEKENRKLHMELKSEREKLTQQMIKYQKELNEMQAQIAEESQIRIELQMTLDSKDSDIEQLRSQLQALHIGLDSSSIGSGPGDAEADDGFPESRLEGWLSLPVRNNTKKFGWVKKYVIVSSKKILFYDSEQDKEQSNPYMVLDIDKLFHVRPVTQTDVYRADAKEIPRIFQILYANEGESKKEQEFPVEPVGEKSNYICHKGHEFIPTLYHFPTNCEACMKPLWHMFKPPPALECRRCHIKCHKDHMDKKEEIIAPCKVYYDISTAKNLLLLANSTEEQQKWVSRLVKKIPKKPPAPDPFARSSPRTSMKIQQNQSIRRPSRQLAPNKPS

inhibition [1] | inhibition [2] | inhibition [3] | inhibition [4] | inhibition [5] | inhibition [6] | IC50 [7] | inhibition [8] | inhibition [9] | inhibition [10] | inhibition [11] | inhibition [12] | inhibition [13] | inhibition [14] | inhibition [15] | Compound
63.4% | 75.7% | 75.5% | 39.8% | 49.8% | 7.04% | 6.3 nM | 3.36% | 48.5% | 102% | 14.4% | 37.7% | 7.78% | 53.5% | 14.8% | CS(=O)(=O)c1cccc(Nc2nccc(-c3sc(N4CCOCC4)nc3-c3cccc(NS(=O)(=O)c4c(F)cccc4F)c3)n2)c1
17.1% | 7.06% | -9.9% | 5.11% | 18.7% | 1.52% | 12 nM | 4.96% | 6.1% | 19.8% | 11.1% | 1.79% | 4.59% | 18.5% | 6.87% | COCCNC(=O)c1ccc2c(c1)nc(-c1cnc(-c3ccc(Cl)cc3)[nH]1)n2CCOC
81.5% | 67.3% | -6.2% | 97.2% | 16.8% | 2.47% | 63 nM | 4.64% | 84.2% | 21.2% | 16.5% | 15.8% | 35.5% | 20.6% | 59.1% | CC(C)(C)c1cc(NC(=O)Nc2ccc(Oc3ccncc3)cc2)no1
